Measurements from PMC8657435, “Adamantane-Substituted Purines and Their β-Cyclodextrin Complexes: Synthesis and Biological Activity” (International Journal of Molecular Sciences, 2021).
Where “and” joins values, the source holds several entries; their conditions need not be identical. Equal entries are not always repeated. Where two headings read alike, the source gives them in different places.

Legend:
[1] = target: T1, CDK2/cyclin E (Homo sapiens, UniProt P24941); experiment: CDK2/cyclin E kinase inhibition assay ([γ-33P]ATP, peptide substrate); assay type: biochemical
Protocol: CDK2/cyclin E activity was assayed as previously described. Briefly, the kinase was assayed with [γ-^33P]ATP and suitable peptide substrates in a reaction buffer (60 mM HEPES-NaOH, pH 7.5, 3 mM MgCl2, 3 mM MnCl2, 3 μM Na-orthovanadate, 1.2 mM DTT, 2.5 μg/50 μL PEG20.000). The reactions were stopped by adding 5 µL of 3% aq. H3PO4. Aliquots were spotted onto P-81 phosphocellulose, washed with 0.5% aq. H3PO4 and air-dried. Kinase inhibition was quantified using an FLA-7000 digital image analyser.

[2] = test system: K-562; experiment: In vitro cytotoxicity / antiproliferative activity, resazurin viability assay, 72 h; assay type: cell-based, human
[3] = test system: MCF-7; experiment: as above; assay type: cell-based, human
[4] = test system: CDK1; design: method as in PMID 24900429; conditions: no inhibition activity; read-out: IC50 towards CDK1; cited from earlier work
[5] = test system: CDK2; conditions: no inhibition activity; read-out: IC50 towards CDK2; cited from earlier work
[6] = target: T1, CDK2/cyclin E; conditions: Figure 1; cited from earlier work
[7] = test system: MCF-7; design: method as in Popowycz et al. [51]; conditions: single purine; ref Popowycz et al. [51]; cited from earlier work
[8] = test system: K-562; design: method as in Popowycz et al. [51]; conditions: single purine; ref Popowycz et al. [51]; cited from earlier work
[9] = mixture purine·β-CD 1:1 molar ratio, read-out: CDK2/Cyclin E IC50, Purine·β-CD (1:1)
[10] = mixture purine·β-CD 1:10 molar ratio, read-out: CDK2/Cyclin E IC50, Purine·β-CD (1:10)
[11] = single purine, no β-CD, mean ± SD of duplicated experiments, read-out: CDK2/Cyclin E IC50, Purine
[12] = Homo sapiens, K562, single purine, 72 h, read-out: K-562 GI50, Purine
[13] = mixture purine·β-CD 1:1, 72 h, read-out: K-562 GI50, Purine·β-CD (1:1)
[14] = mixture purine·β-CD 1:10, 72 h, read-out: K-562 GI50, Purine·β-CD (1:10)
[15] = Homo sapiens, MCF7, single purine, 72 h, read-out: MCF-7 GI50, Purine
[16] = mixture purine·β-CD 1:1, 72 h, read-out: MCF-7 GI50, Purine·β-CD (1:1)
[17] = mixture purine·β-CD 1:10, 72 h, read-out: MCF-7 GI50, Purine·β-CD (1:10)
[18] = mixture purine·β-CD 1:1 molar ratio
[19] = mixture purine·β-CD 1:10 molar ratio
[20] = single purine, no β-CD, mean ± SD of duplicated experiments

| SMILES | IC50 [1, 9] [µM] | IC50 [1, 10] [µM] | IC50 [1, 11] | GI50 [2, 12] [µM] | GI50 [2, 13] [µM] | GI50 [2, 14] [µM] | GI50 [3, 15] [µM] | GI50 [3, 16] [µM] | GI50 [3, 17] [µM] | melting point [°C] | CDK2/Cyclin E IC50, Purine·β-CD (1:1) [1, 18] | also measured |
| --- | --- | --- | --- | --- | --- | --- | --- | --- | --- | --- | --- | --- |
| CC(C)n1cnc2c(NCc3cccc(C(=O)CC45CC6CC(CC(C6)C4)C5)c3)nc(NCCCO)nc21 [Compound 4i] | > 40 | 30.7 | > 10 µM and 14 µM | > 6.25 | 19.8 ± 0.5 | > 40 | > 6.25 | 30 ± 5 | > 40 | 64 to 69 | – | – |
| CC(C)n1cnc2c(Nc3cccc(C(=O)C45CC6CC(CC(C6)C4)C5)c3)nc(NCCCO)nc21 [Compound 4a, (1-Adamantyl)[3-({2-[(3-hydroxypropyl)amino]-9-isopropyl-9H-purin-6-yl}amino)phenyl]methanone] | 5.5 ± 1.3 | > 40 | 2.55 ± 0.08 µM | 6.16 | 15 ± 0.16 | > 40 | > 6.25 | 15.7 ± 0.9 | > 40 | – | – | – |
| CC(C)n1cnc2c(Nc3cccc(C(O)C45CC6CC(CC(C6)C4)C5)c3)nc(NCCCO)nc21 (stereo not drawn) [Compound 4b, 3-{[6-({3-[1-Adamantyl(hydroxy)methyl]phenyl}amino)-9-isopropyl-9H-purin-2-yl]amino}propan-1-ol] | 0.16 | 0.3 ± 0.2 | 0.21 ± 0.02 µM | > 6.25 | 34.69 ± 0.14 | > 40 | > 6.25 | 32 ± 3 | > 40 | 88 to 93 | essentially consistent with their non-complexed forms | Activity on CDK2/cyclin E, fold higher than bohemine ([1]; single purine, versus bohemine (4k)): 3.5 fold |
| CC(C)n1cnc2c(Nc3ccc(C(O)C45CC6CC(CC(C6)C4)C5)cc3)nc(NCCCO)nc21 (stereo not drawn) [Compound 4e, 3-{[6-({4-[1-Adamantyl(hydroxy)methyl]phenyl}amino)-9-isopropyl-9H-purin-2-yl]amino}propan-1-ol] | 1.53 | 26.1 | 1.6 ± 0.7 µM | 10.1 ± 0.8 | 18.7 ± 0.6 | > 40 | 8.1 ± 0.7 | 17 ± 2 | > 40 | – | essentially consistent with their non-complexed forms | – |
| CC(C)n1cnc2c(Nc3ccc(CC45CC6CC(CC(C6)C4)C5)cc3)nc(NCCCO)nc21 [Compound 4f, 3-{[6-{[4-(1-Adamantylmethyl)phenyl]amino}-9-isopropyl-9H-purin-2-yl]amino}propan-1-ol] | > 40 | > 40 | > 12.5 µM | 10.4 ± 0.7 | 24 ± 3 | > 40 | > 12.5 | 32.9 ± 0.1 | > 40 | – | no activity | CDK2/Cyclin E IC50, Purine·β-CD (1:10) [1, 19]: no activity; CDK2/Cyclin E IC50, Purine [1, 20]: no activity |
| CC(C)n1cnc2c(Nc3ccc(C(=O)C45CC6CC(CC(C6)C4)C5)cc3)nc(NCCCO)nc21 [Compound 4d, (1-Adamantyl)[4-({2-[(3-hydroxypropyl)amino]-9-isopropyl-9H-purin-6-yl}amino)phenyl]methanone] | 1.4 ± 0.5 | 7.57 | 0.6 ± 0.2 µM | 5.45 | 16.5 ± 0.7 | > 40 | 5.72 | 13.8 ± 1.4 | > 40 | – | – | IC50 ([1]; single purine, read-out: CDK2/cyclin E IC50): 0.58 µM; Fold more potent at inhibiting cell proliferation on K-562 than bohemine ([2]; single purine): 17.8 fold; Fold more potent at inhibiting cell proliferation on K-562 than roscovitine ([2]; single purine): 9.2 fold; Efficacy on MCF-7, fold higher than bohemine ([3]; single purine): 4.7 fold; Efficacy on MCF-7, fold higher than roscovitine ([3]; single purine): 2.2 fold |
| CC(C)n1cnc2c(NC34CC5CC(CC(C5)C3)C4)nc(NCCCO)nc21 [Compound 4m, 6-[(1-adamantyl)amino]-2-[(3-hydroxypropyl)amino]-9-(propan-2-yl)purine] | – | – | – | – | – | – | – | – | – | – | – | IC50 [4]: > 100 µM; IC50 [5]: > 100 µM; IC50 [6]: > 100 µM |
| CC(C)n1cnc2c(NC34CC5CC(CC(C5)C3)C4)nc(NCC(O)CO)nc21 (stereo not drawn) [Compound 4n] | – | – | – | – | – | – | – | – | – | – | – | IC50 [6]: > 100 µM |
| CC(C)n1cnc2c(Nc3cccc(CCC45CC6CC(CC(C6)C4)C5)c3)nc(NCCCO)nc21 [Compound 4h, 3-{[6-({3-[2-(1-Adamantyl)ethyl]phenyl}amino)-9-isopropyl-9H-purin-2-yl]amino}propan-1-ol] | > 40 | > 40 | > 12.5 µM | > 12.5 | > 40 | > 40 | > 12.5 | > 40 | > 40 | 72 to 78 | no activity | CDK2/Cyclin E IC50, Purine·β-CD (1:10) [1, 19]: no activity; CDK2/Cyclin E IC50, Purine [1, 20]: no activity |
| CC[C@H](CO)Nc1nc(NCc2ccccc2)c2ncn(C(C)C)c2n1 [Compound 4l, roscovitine] | – | – | – | – | – | – | – | – | – | – | – | GI50 [7]: 12.6 µM; GI50 [8]: 50.1 µM |
| CC(C)n1cnc2c(Nc3cccc(C(O)CC45CC6CC(CC(C6)C4)C5)c3)nc(NCCCO)nc21 (stereo not drawn) [Compound 4g, 3-{[6-({3-[2-(1-Adamantyl)-1-hydroxyethyl]phenyl}amino)-9-isopropyl-9H-purin-2-yl]amino}propan-1-ol] | 1.24 | 7.15 | 0.92 ± 0.18 µM | > 6.25 | 33.6 ± 1.2 | > 40 | > 6.25 | 17 ± 2 | > 40 | 87 to 91 | essentially consistent with their non-complexed forms | – |
| CC(C)n1cnc2c(Nc3cccc(CC45CC6CC(CC(C6)C4)C5)c3)nc(NCCCO)nc21 [Compound 4c, 3-{[6-{[3-(1-Adamantylmethyl)phenyl]amino}-9-isopropyl-9H-purin-2-yl]amino}propan-1-ol] | 1.85 | > 40 | > 10 µM and 12 µM | > 6.25 | 28.7 ± 10.2 | > 40 | > 6.25 | > 40 | > 40 | 88 to 93 | – | – |
| CC(C)n1cnc2c(NCc3ccc(C(=O)CC45CC6CC(CC(C6)C4)C5)cc3)nc(NCCCO)nc21 [Compound 4j] | 15.7 | 20.9 | 3.26 ± 0.01 µM | > 6.25 | 17.7 ± 0.6 | > 40 | > 6.25 | 21.51 ± 0.04 | > 40 | – | – | Activity on CDK2/cyclin E, fold higher than meta-analogue 4i ([1]; single purine, para versus meta): 4.3 fold |
